Experimental data from the NIST ThermoML archive (doi:10.1021/je300852v).

Test: mean ionic activity coefficient (dimensionless); mn = molality of the nth substance listed, in mol/kg
Settings: 298.15 K, 101 kPa, Liquid, 2 term dubye huckel

[Ca+2].[Cl-].[Cl-] [calcium chloride] + O
Settings | mean ionic activity coefficient
m1 = 0.01 | 0.728
m1 = 0.02 | 0.664
m1 = 0.05 | 0.576
m1 = 0.1 | 0.517
m1 = 0.2 | 0.47
m1 = 0.3 | 0.453
m1 = 0.4 | 0.448
m1 = 0.5 | 0.449
m1 = 0.6 | 0.454
m1 = 0.7 | 0.462
m1 = 0.8 | 0.473
m1 = 0.9 | 0.487
m1 = 1 | 0.502
m1 = 1.2 | 0.54
m1 = 1.4 | 0.586
m1 = 1.6 | 0.643
m1 = 1.8 | 0.71
m1 = 2 | 0.79
m1 = 2.5 | 1.064
m1 = 3 | 1.49
